# Reference: ChEMBL document CHEMBL1137833, “Synthesis and biological evaluation of stilbene-based pure estrogen antagonists” (Bioorg Med Chem Lett, 2004)
# Molecular target: T1, Estrogen receptor (Homo sapiens, UniProt Q92731+P03372)
# Experiment: Inhibition of 10e-9 M E2 stimulated transcriptional activation in ER+MCF-7/2a breast cancer cells
# Format: functional, cell-based
# Conditions: cancer cell lines
row,SMILES,IC50 [nM]
1,CCCCCS(=O)(=O)CCCCCCCCCCn1c(-c2ccc(O)cc2)c(C)c2cc(O)ccc21,20
2,CCCCCS(=O)(=O)CCCCCCCCCC/C(=C(/CC)c1cccc(O)c1)c1ccc(O)cc1,50
3,CCCCCSCCCCCCCCCC/C(=C(/CC)c1cccc(O)c1)c1ccc(O)cc1,200
4,CCCCCS(=O)(=O)CCCCCCCCCC/C(=C(/CC)c1ccc(O)cc1)c1cccc(O)c1,370
5,CCCCCSCCCN(C)CCCCCC/C(=C(/CC)c1ccc(O)cc1)c1ccc(O)cc1,10
6,CCCCCSCCCCCCCCCC/C(=C(/CC)c1ccc(O)cc1)c1ccc(O)cc1,790
7,CCCCCS(=O)(=O)CCCCCCCCCC/C(=C(/CC)c1ccc(O)cc1)c1ccc(O)cc1,130
8,CCCCCSCCCCCCCCCC/C(=C(/CC)c1ccc(O)cc1)c1cccc(O)c1,1200
9,CC/C(=C(/CCCCCC(=O)N(C)CCCSCCCC(F)(F)C(F)(F)F)c1ccc(O)cc1)c1ccc(O)cc1,310
10,CCCCCSCCCN(C)C(=O)CCCCC/C(=C(/CC)c1ccc(O)cc1)c1ccc(O)cc1,600
11,CC/C(=C(/CCCCCCN(C)CCCSCCCC(F)(F)C(F)(F)F)c1ccc(O)cc1)c1ccc(O)cc1,10

# Molecular target: T1, Estrogen receptor
# Experiment: Inhibition of 10e-9 M E2 stimulated MCF-7 breast cancer cell proliferation
# Format: functional, cell-based
# Conditions: cancer cell lines
row,SMILES,IC50 [nM]
1,CCCCCS(=O)(=O)CCCCCCCCCCn1c(-c2ccc(O)cc2)c(C)c2cc(O)ccc21,50
2,CCCCCS(=O)(=O)CCCCCCCCCC/C(=C(/CC)c1cccc(O)c1)c1ccc(O)cc1,110
3,CCCCCSCCCCCCCCCC/C(=C(/CC)c1cccc(O)c1)c1ccc(O)cc1,590
4,CCCCCS(=O)(=O)CCCCCCCCCC/C(=C(/CC)c1ccc(O)cc1)c1cccc(O)c1,270
5,CCCCCSCCCN(C)CCCCCC/C(=C(/CC)c1ccc(O)cc1)c1ccc(O)cc1,10
6,CCCCCSCCCCCCCCCC/C(=C(/CC)c1ccc(O)cc1)c1ccc(O)cc1,1400
7,CCCCCS(=O)(=O)CCCCCCCCCC/C(=C(/CC)c1ccc(O)cc1)c1ccc(O)cc1,100
8,CCCCCSCCCCCCCCCC/C(=C(/CC)c1ccc(O)cc1)c1cccc(O)c1,2100
9,CC/C(=C(/CCCCCC(=O)N(C)CCCSCCCC(F)(F)C(F)(F)F)c1ccc(O)cc1)c1ccc(O)cc1,700
10,CCCCCSCCCN(C)C(=O)CCCCC/C(=C(/CC)c1ccc(O)cc1)c1ccc(O)cc1,1900
11,CC/C(=C(/CCCCCCN(C)CCCSCCCC(F)(F)C(F)(F)F)c1ccc(O)cc1)c1ccc(O)cc1,7

# Molecular target: T1, Estrogen receptor
# Experiment: not given
# Conditions: Cancer cell lines, at 10 µM
row,SMILES,T/C [%]
1,C[C@]12CC[C@@H]3c4ccc(O)cc4C[C@@H](CCCCCCCCC[S+]([O-])CCCC(F)(F)C(F)(F)F)[C@H]3[C@@H]1CC[C@@H]2O (some centres not stated),95
2,CCCCCS(=O)(=O)CCCCCCCCCCn1c(-c2ccc(O)cc2)c(C)c2cc(O)ccc21,-2
3,CCCCCS(=O)(=O)CCCCCCCCCC/C(=C(/CC)c1cccc(O)c1)c1ccc(O)cc1,32
4,CCCCCS(=O)(=O)CCCCCCCCCC/C(=C(/CC)c1ccc(O)cc1)c1cccc(O)c1,-7
5,CCCCCSCCCN(C)CCCCCC/C(=C(/CC)c1ccc(O)cc1)c1ccc(O)cc1,-25
6,CCCCCS(=O)(=O)CCCCCCCCCC/C(=C(/CC)c1ccc(O)cc1)c1ccc(O)cc1,-4
7,CC/C(=C(/CCCCCCN(C)CCCSCCCC(F)(F)C(F)(F)F)c1ccc(O)cc1)c1ccc(O)cc1,-15

# Molecular target: T1, Estrogen receptor
# Experiment: not given
# Conditions: Cancer cell lines, at 5 µM
row,SMILES,T/C [%]
1,C[C@]12CC[C@@H]3c4ccc(O)cc4C[C@@H](CCCCCCCCC[S+]([O-])CCCC(F)(F)C(F)(F)F)[C@H]3[C@@H]1CC[C@@H]2O (some centres not stated),93
2,CCCCCS(=O)(=O)CCCCCCCCCCn1c(-c2ccc(O)cc2)c(C)c2cc(O)ccc21,84
3,CCCCCS(=O)(=O)CCCCCCCCCC/C(=C(/CC)c1cccc(O)c1)c1ccc(O)cc1,90
4,CCCCCS(=O)(=O)CCCCCCCCCC/C(=C(/CC)c1ccc(O)cc1)c1cccc(O)c1,96
5,CCCCCSCCCN(C)CCCCCC/C(=C(/CC)c1ccc(O)cc1)c1ccc(O)cc1,75
6,CCCCCS(=O)(=O)CCCCCCCCCC/C(=C(/CC)c1ccc(O)cc1)c1ccc(O)cc1,94
7,CC/C(=C(/CCCCCCN(C)CCCSCCCC(F)(F)C(F)(F)F)c1ccc(O)cc1)c1ccc(O)cc1,-15

# Molecular target: T1, Estrogen receptor
# Experiment: Inhibition of ER+ MCF-7 breast cancer cell proliferation over 200 hr
# Conditions: cancer cell lines
row,SMILES,IC50 [nM]
1,CCCCCS(=O)(=O)CCCCCCCCCCn1c(-c2ccc(O)cc2)c(C)c2cc(O)ccc21,1.4
2,CCCCCS(=O)(=O)CCCCCCCCCC/C(=C(/CC)c1cccc(O)c1)c1ccc(O)cc1,6.1
3,CCCCCS(=O)(=O)CCCCCCCCCC/C(=C(/CC)c1ccc(O)cc1)c1cccc(O)c1,49
4,CCCCCSCCCN(C)CCCCCC/C(=C(/CC)c1ccc(O)cc1)c1ccc(O)cc1,0.75
5,CCCCCS(=O)(=O)CCCCCCCCCC/C(=C(/CC)c1ccc(O)cc1)c1ccc(O)cc1,5.1
6,CC/C(=C(/CCCCCCN(C)CCCSCCCC(F)(F)C(F)(F)F)c1ccc(O)cc1)c1ccc(O)cc1,0.22
